These results are taken from patent publication US20240132457A1, “3-(2-(BENZO[D]THIAZOL-2-YL)-2-(PHENYLSUFONAMIDO)ETHYL)BENZIMIDAMIDE DERIVATIVES AND RELATED COMPOUNDS AS TMPRSS2 INHIBITORS FOR THE TREATMENT OF VIRAL INFECTIONS” (INTEGERBIO, INC., priority 2020, published 2024).

The term IC50 denotes the concentration that inhibits the measured activity by half.

Format in all cases: biochemical
Holding throughout (settings): 10-dose, 3-fold from 10 μM

One assay addresses T1, Kallikrein 12 (Homo sapiens, UniProt Q9UKR0).
T1 sequence (Q9UKR0 18-248): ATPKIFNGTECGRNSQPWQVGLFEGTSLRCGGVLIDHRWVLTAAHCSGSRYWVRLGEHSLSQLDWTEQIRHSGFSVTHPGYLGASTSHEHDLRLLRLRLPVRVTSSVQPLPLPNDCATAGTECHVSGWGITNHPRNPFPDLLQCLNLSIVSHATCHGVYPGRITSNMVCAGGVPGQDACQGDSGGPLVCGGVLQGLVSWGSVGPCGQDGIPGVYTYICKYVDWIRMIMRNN
Briefly: Non-TMPRSS2 protease panel: Kallikrein 12. On the procedure:
(§1) Biochemical activity of compound 1 (racemic mixture, batch 1), compound 3 (racemic), compound 11, and compound 2 (enantiomer 1, batch 1) in proteases indicated in Table 21, Table 22, Table 23, and Table 24, respectively, were measured by testing the compounds in a 10-dose IC50 with a 3-fold series dilution starting at 10 μM against the proteases. The protease activities were monitored as a time-course measurement of the increase in fluorescence signal from fluorescently-labeled peptide substrate, and initial linear portion of slope (signal/min) was analyzed. The curve fits were performed when the activities at the highest concentration of compounds were less than 65%.

Another assay has as its target T2, MMP 2 (Homo sapiens, UniProt P08253).
T2 sequence (P08253 110-660): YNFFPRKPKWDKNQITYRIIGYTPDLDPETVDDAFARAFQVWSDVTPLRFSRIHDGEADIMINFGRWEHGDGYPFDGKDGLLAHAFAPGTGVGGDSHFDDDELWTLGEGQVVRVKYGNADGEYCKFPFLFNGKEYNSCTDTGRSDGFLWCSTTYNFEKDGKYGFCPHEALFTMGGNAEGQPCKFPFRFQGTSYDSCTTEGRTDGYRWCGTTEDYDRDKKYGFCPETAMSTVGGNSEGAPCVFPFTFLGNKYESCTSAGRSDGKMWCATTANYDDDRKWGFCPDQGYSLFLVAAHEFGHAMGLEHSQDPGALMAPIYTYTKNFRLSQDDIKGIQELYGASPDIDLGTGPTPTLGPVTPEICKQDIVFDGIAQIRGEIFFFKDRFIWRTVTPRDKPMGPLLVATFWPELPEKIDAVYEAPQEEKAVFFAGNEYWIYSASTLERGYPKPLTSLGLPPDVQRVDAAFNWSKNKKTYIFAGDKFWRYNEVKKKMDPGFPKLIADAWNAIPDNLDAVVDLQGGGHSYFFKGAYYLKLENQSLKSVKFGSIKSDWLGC
Briefly: Non-TMPRSS2 protease panel: MMP 2. On the procedure:
as §1

The target in another assay is Urokinase (Homo sapiens, UniProt P00749). Briefly: Non-TMPRSS2 protease panel: Urokinase. Here is the method: as §1
The next assay addresses T3, PLpro (Severe acute respiratory syndrome coronavirus 2, UniProt P0DTD1).
T3 construct: Plasma Kallikrein, Plasmin, Plpro, TACE
Briefly: Non-TMPRSS2 protease panel: PLpro. Here is the method: as §1

For a further assay, the target named is Kallikrein 7 (Homo sapiens, UniProt P49862). Briefly: Non-TMPRSS2 protease panel: Kallikrein 7. On the procedure:
as §1

For a further assay, the target named is Plasmin (Homo sapiens, UniProt P00747). Description: Non-TMPRSS2 protease panel: Plasmin. Here is the method:
as §1

The next assay has as its target Plasma Kallikrein (Homo sapiens, UniProt P03952). Briefly: Non-TMPRSS2 protease panel: Plasma Kallikrein. On the procedure:
as §1

Another assay concerns the target T4, FVIIa (Homo sapiens, UniProt P08709).
T4 construct: Elastase, FVIIa, Fxa, FXIa
T4 sequence (P08709 213-466 limits assumed): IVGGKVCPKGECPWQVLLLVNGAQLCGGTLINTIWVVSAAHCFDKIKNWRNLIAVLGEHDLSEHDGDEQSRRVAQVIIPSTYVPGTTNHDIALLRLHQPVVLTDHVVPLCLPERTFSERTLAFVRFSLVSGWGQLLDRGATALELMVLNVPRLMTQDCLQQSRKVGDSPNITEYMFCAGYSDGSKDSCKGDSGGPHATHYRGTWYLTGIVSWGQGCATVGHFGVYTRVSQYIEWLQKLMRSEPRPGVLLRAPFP
T4 sequence (P08709 61-212 partner limits assumed): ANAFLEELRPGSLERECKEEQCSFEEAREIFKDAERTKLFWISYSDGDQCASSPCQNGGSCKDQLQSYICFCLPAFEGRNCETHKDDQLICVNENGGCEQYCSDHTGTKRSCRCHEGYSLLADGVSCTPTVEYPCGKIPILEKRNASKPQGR
Briefly: Non-TMPRSS2 protease panel: FVIIa. Here is the method:
as §1

Another assay addresses TACE (Homo sapiens, UniProt P78536). Description: Non-TMPRSS2 protease panel: TACE. Here is the method: as §1
In the next assay the test system is Trypsin. Briefly: Non-TMPRSS2 protease panel: Trypsin. On the procedure: as §1

Sequence of Plasma Kallikrein (P03952 391-638 limits assumed): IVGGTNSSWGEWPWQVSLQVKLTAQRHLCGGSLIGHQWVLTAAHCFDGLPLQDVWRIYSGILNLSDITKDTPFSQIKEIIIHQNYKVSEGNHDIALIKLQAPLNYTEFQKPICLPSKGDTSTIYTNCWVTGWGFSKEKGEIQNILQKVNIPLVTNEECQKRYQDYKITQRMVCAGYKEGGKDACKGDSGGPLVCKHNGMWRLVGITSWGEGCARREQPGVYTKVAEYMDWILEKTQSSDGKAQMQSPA
Sequence of Plasma Kallikrein (P03952 20-390 partner limits assumed): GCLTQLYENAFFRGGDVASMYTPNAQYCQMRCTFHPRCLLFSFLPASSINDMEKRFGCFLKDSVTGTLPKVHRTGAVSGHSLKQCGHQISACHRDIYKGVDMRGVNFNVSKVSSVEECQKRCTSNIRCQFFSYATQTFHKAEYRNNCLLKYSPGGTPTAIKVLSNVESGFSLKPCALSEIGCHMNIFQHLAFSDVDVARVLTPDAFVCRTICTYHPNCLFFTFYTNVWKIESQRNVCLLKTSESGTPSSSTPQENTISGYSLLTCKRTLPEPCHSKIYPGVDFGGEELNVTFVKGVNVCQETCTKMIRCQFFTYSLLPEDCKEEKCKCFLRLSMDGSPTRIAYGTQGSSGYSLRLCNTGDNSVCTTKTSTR
Sequence of Kallikrein 7 (P49862 30-253): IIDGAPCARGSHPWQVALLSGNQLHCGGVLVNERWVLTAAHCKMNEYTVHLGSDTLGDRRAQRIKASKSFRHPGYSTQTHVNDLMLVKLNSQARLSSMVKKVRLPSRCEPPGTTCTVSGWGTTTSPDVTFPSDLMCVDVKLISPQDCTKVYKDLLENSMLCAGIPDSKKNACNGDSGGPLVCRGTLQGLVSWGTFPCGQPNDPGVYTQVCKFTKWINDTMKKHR
Sequence of Plasmin (P00747 581-810 limits assumed, species assumed): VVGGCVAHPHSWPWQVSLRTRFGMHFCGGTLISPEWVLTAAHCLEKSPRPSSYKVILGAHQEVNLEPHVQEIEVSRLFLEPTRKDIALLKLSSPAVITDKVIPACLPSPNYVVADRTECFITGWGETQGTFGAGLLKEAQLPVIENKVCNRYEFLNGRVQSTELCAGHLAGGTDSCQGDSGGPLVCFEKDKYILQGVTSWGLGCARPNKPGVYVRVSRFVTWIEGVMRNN
Sequence of Plasmin (P00747 97-580 partner limits assumed, species assumed): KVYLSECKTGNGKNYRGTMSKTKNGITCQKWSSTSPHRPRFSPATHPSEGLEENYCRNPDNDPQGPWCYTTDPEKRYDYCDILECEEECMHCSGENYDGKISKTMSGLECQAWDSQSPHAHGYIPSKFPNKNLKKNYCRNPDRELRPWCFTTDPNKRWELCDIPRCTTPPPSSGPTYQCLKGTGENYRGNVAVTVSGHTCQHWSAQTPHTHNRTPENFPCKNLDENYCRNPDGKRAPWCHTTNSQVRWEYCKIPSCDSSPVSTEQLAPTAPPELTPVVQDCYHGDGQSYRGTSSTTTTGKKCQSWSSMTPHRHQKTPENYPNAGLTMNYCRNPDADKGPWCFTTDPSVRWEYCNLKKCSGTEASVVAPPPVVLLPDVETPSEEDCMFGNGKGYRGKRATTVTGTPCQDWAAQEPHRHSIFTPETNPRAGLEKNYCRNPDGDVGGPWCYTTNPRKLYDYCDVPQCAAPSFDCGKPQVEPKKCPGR
Sequence of TACE (P78536 215-824): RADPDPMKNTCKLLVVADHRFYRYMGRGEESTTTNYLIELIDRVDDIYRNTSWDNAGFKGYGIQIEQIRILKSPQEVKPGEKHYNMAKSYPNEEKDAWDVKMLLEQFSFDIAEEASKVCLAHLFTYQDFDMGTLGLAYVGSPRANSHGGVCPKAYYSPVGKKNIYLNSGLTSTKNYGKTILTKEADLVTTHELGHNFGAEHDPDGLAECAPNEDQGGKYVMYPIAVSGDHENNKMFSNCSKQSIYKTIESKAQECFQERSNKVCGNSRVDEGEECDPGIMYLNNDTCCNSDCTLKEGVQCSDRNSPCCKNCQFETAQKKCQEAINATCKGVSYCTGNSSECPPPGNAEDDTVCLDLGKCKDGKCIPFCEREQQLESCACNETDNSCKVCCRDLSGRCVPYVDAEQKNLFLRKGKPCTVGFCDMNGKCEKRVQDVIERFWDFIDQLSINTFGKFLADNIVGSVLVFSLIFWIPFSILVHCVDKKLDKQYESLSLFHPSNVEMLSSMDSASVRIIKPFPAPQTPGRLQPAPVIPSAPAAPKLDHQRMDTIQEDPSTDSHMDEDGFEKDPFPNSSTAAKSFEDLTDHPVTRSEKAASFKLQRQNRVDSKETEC

With `N=C(N)c1cccc(C[C@H](NS(=O)(=O)c2ccccc2)c2nnco2)c1` (single isomer, unassigned) [Compound 2 (enantiomer 1, batch 1), 3-[2-Benzenesulfonamido-2-(1,3,4-oxadiazol-2-yl)ethyl]benzene-1-carboximidamide], the concentration for half-maximal inhibition (IC50) against Kallikrein 12, at MMP 2, against Urokinase, against PLpro, against Kallikrein 7 and against Plasmin was > 10 µM throughout. The IC50 at Plasma Kallikrein, on FVIIa (FVIIa), against TACE and in the assay on Trypsin was > 10 µM in each case.
With `N=C(N)c1cccc(CC(NS(=O)(=O)c2ccccc2)c2nc3ccccc3s2)c1` (racemic) [1 (racemic mixture, batch 1), 3-[2-Benzenesulfonamido-2-(1,3-benzothiazol-2-yl)ethyl]benzene-1-carboximidamide], the IC50 against Kallikrein 12, against MMP 2, against Urokinase, against PLpro, at Kallikrein 7 and at Plasmin was > 10 µM each time. In addition, the IC50 on Plasma Kallikrein, against FVIIa (FVIIa), at TACE and in the assay on Trypsin was > 10 µM throughout.
On to `COc1ccc2nc(C(Cc3cccc(C(=N)N)c3)NS(=O)(=O)c3ccccc3)sc2c1` (stereo not shown) [Compound 11, 3-[2-Benzenesulfonamido-2-(6-methoxy-1,3-benzothiazol-2-yl)ethyl]benzene-1-carboximidamide], for which the IC50 was > 10 µM at Kallikrein 12; > 10 µM against MMP 2; < 10 µM against Urokinase; > 10 µM at PLpro; > 10 µM on Kallikrein 7; > 10 µM at Plasmin. Also, the IC50 against Plasma Kallikrein, against FVIIa (Factor VIIa), at TACE and with Trypsin was > 10 µM each time.
For `N=C(N)c1cccc(CC(NS(=O)(=O)c2cccc(-c3ccc(Cl)cc3Cl)c2)c2nc3ccccc3s2)c1` (racemic) [3 (racemic), 3-[2-(1,3-Benzothiazol-2-yl)-2-{2′,4′-dichloro-[1,1′-biphenyl]-3-sulfonamido}ethyl]benzene-1-carboximidamide], the half-inhibitory concentration (IC50) against Kallikrein 12 is > 10 µM; on MMP 2, < 10 µM; against Urokinase it was > 10 µM; at PLpro, > 10 µM; at Kallikrein 7, > 10 µM; against Plasmin, > 10 µM. Besides, the IC50 against Plasma Kallikrein was > 10 µM; against FVIIa (FVIIa), > 10 µM; on TACE, > 10 µM; in the assay on Trypsin, < 10 µM.
